Test results published in patent publication US10239925B2, “Peptides and combination of peptides for use in immunotherapy against ovarian cancer and other cancers” (IMMATICS BIOTECHNOLOGIES GMBH, priority 2015, dated 2019).

How the values were obtained:
HLA-A*02:01 = HLA-A*02:01 (Homo sapiens, UniProt P04439, D140Y/D185E/D98H/E176V/E277Q/G131W/G231S/I119V/I121R/I166T/I218V/L300P/L318F/N151K/N90K/P208A/P217A/Q86G/Q94H/R138H/R169H/T345S); assay: MHC binding assay (UV-ligand exchange, anti-β2m ELISA, peptide exchange yield); settings: binding to HLA-A*02:01
In short: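 Peptide-MHC complexes formed by UV-ligand exchange, cleaving a UV-sensitive placeholder peptide in favour of the test peptide. Exchange yield measured by ELISA: monomers diluted 100-fold onto streptavidin-coated plates, 1 h 37 °C, detected with 2 ug/ml HRP anti-β2m and TMB, absorbance at 450 nm.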

CD8+ T cells = assay: In vitro immunogenicity: priming of CD8+ T cells with aAPCs loaded with peptide/MHC and anti-CD28, multimer readout; type: cell-based, human; settings: for Wells positive [%]: HLA-A*02 restricted peptides, percentage of positive wells (among evaluable)
Procedure: In an aspect, the peptides are pre-screened for immunogenicity before being included in the warehouse. By way of example, and not limitation, the immunogenicity of the peptides included in the warehouse is determined by a method comprising in vitro T-cell priming through repeated stimulations of CD8+ T cells from healthy donors with artificial antigen presenting cells loaded with peptide/MHC complexes and anti-CD28 antibody.
FIGS. 3A to 3F show exemplary immunogenicity data: flow cytometry results after peptide-specific multimer staining. CD8+ T cells were primed using artificial APCs coated with anti-CD28 mAb and HLA-A*02 in complex with SeqID No 662 (FIG. 3A, left panel), SeqID No 663 (FIG. 3B, left panel), SeqID No 11 peptide (FIG. 3C, left panel), SeqID No 198 peptide (FIG. 3D, left panel), SeqID No 587 peptide (FIG. 3E, left panel) and SeqID No 427 peptide (FIG. 3F, left panel), respectively. After three cycles of stimulation, the detection of peptide-reactive cells was performed by 2D multimer staining with A*02/SeqID No 662 (FIG. 3A), A*02/SeqID No 663 (FIG. 3B), A*02/SeqID No 11 (FIG. 3C), A*02/SeqID No 198 (FIG. 3D), A*02/SeqID No 587 (FIG. 3E) or A*02/SeqID No 427 (FIG. 3F). Right panels (FIGS. 3A, 3B, 3C, 3D, 3E, and 3F) show control staining of cells stimulated with irrelevant A*02/peptide complexes. Viable singlet cells were gated for CD8+ lymphocytes. Boolean gates helped excluding false-positive events detected with multimers specific for different peptides. Frequencies of specific multimer+ cells among CD8+ lymphocytes are indicated.
In Vitro Immunogenicity for MHC Class I Presented Peptides
In order to obtain information regarding the immunogenicity of the TUMAPs of the present invention, the inventors performed investigations using an in vitro T-cell priming assay based on repeated stimulations of CD8+ T cells with artificial antigen presenting cells (aAPCs) loaded with peptide/MHC complexes and anti-CD28 antibody.
In Vitro Priming of CD8+ T Cells
In order to perform in vitro stimulations by artificial antigen presenting cells loaded with peptide-MHC complex (pMHC) and anti-CD28 antibody, the inventors first isolated CD8+ T cells from fresh HLA-A*02 leukapheresis products via positive selection using CD8 microbeads (Miltenyi Biotec, Bergisch-Gladbach, Germany) of healthy donors obtained from the University clinics Mannheim, Germany, after informed consent.
PBMCs and isolated CD8+ lymphocytes were incubated in T-cell medium (TCM) until use consisting of RPMI-Glutamax (Invitrogen, Karlsruhe, Germany) supplemented with 10% heat inactivated human AB serum (PAN-Biotech, Aidenbach, Germany), 100 U/ml Penicillin/100 μg/ml Streptomycin (Cambrex, Cologne, Germany), 1 mM sodium pyruvate (CC Pro, Oberdorla, Germany), 20 μg/ml Gentamycin (Cambrex). 2.5 ng/ml IL-7 (PromoCell, Heidelberg, Germany) and 10 U/ml IL-2 (Novartis Pharma, Nümberg, Germany) were also added to the TCM at this step.
Generation of pMHC/anti-CD28 coated beads, T-cell stimulations and readout was performed in a highly defined in vitro system using four different pMHC molecules per stimulation condition and 8 different pMHC molecules per readout condition.
The purified co-stimulatory mouse IgG2a anti human CD28 Ab 9.3 (Jung et al., 1987) was chemically biotinylated using Sulfo-N-hydroxysuccinimidobiotin as recommended by the manufacturer (Perbio, Bonn, Germany). Beads used were 5.6 μm diameter streptavidin coated polystyrene particles (Bangs Laboratories, Illinois, USA).
pMHC used for positive and negative control stimulations were A*0201/MLA-001 (peptide […] (SEQ ID NO. 664) from modified Melan-A/MART-1) and A*0201/DDX5-001 ([…] from DDX5, SEQ ID NO. 665), respectively.
800.000 beads/200 μl were coated in 96-well plates in the presence of 4×12.5 ng different biotin-pMHC, washed and 600 ng biotin anti-CD28 were added subsequently in a volume of 200 μl. […]

Row | Substance | Peptide exchange (MHC class I binding score, peptide exchange yield) (HLA-A*02:01) | Wells positive [%] (CD8+ T cells) | donors (CD8+ T cells; percentage of positive donors) | wells (CD8+ T cells; percentage of positive wells)
1 | 198 (KTINKVPTV; listed as Homo sapiens) [compound 198] | “+++” (>50 = +++) | “++” (20% - 49% = ++) | – | –
2 | 48 (ALAELYEDEV; listed as Homo sapiens) [compound 48] | “+++” (>50 = +++) | “+” (<20% = +) | – | –
3 | 38 (FLLEDDIHVS; listed as Homo sapiens) [compound 38] | “+++” (>50 = +++) | “+” (<20% = +) | – | –
4 | 463 (SLVESHLSDQLTL; listed as Homo sapiens) [compound 463] | “+++” (>50 = +++) | “++” (20% - 49% = ++) | – | –
5 | 454 (KLPPPPPQA; listed as Homo sapiens) [compound 454] | “+++” (>50 = +++) | “++” (20% - 49% = ++) | – | –
6 | 5 (HLTEVYPEL; listed as Homo sapiens) [compound 5] | “+++” (>50 = +++) | “+++” (50% - 69% = +++) | – | –
7 | 118 (KLIDNNINV; listed as Homo sapiens) [compound 118] | “+++” (>50 = +++) | “+” (<20% = +) | – | –
8 | 3 (SLASKLTTL; listed as Homo sapiens) [compound 3] | “++++” (>75% = ++++) | “+” (<20% = +) | – | –
9 | 113 (GLLPTPLFGV; listed as Homo sapiens) [compound 113] | “+++” (>50 = +++) | “+” (<20% = +) | – | –
10 | 61 (FLQGYQLHL; listed as Homo sapiens) [compound 61] | “++++” (>75% = ++++) | “++” (20% - 49% = ++) | – | –
11 | 141 (YLDFSNNRL; listed as Homo sapiens) [compound 141] | “++” (>20% = ++) | “+” (<20% = +) | – | –
12 | 511 (FLDPYCSASV; listed as Homo sapiens) [compound 511] | “++” (>20% = ++) | “+” (<20% = +) | – | –
13 | 143 (LLLDITPEI; listed as Homo sapiens) [compound 143] | “++++” (>75% = ++++) | “+” (<20% = +) | – | –
14 | 283 (ALYIGDGYVIHLA; listed as Homo sapiens) [compound 283] | “+++” (>50 = +++) | – | +++ (50% - 69% = +++) | + (<20% = +)
